{"source": "patent US20140348819A1", "about": "“Methods of Treating Cancer” (Dana-Farber Cancer Institute, Inc., priority 2011, published 2014)", "key": {"[1]": {"tested_on": "six V600E BRAF melanoma cell lines", "assay": "Screening of recombinant RTK ligands for ability to confer resistance to BRAFi (PLX4720) or MEKi (PD184352) (Table 4)", "format": "cell-based, human", "design": "ability of recombinant RTK ligand to confer resistance / ability of recombinant RTK ligand to confer resistance (screening value): scale not given here", "how_it_was_run": "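Resistance to BRAFi (PLX4720) or MEKi (PD184352) was tested in six V600E BRAF melanoma lines given one of 22 recombinant RTK ligands. For a subset of RTKs, activation was checked by high-throughput tyrosine kinase phosphorylation profiling and western blot.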"}, "pERK/pAKT": {"tested_on": "pERK/pAKT", "assay": "High-throughput western analysis of pERK/pAKT re-activation by RTK ligands under BRAFi/MEKi", "format": "cell-based, human", "conditions": "under BRAFi (PLX4720); after 1 hour of cytokine treatment; six V600E BRAF melanoma cell lines"}}, "data": [{"substance": "PDGF-BB: RTK ligand of PDGFRB", "values": [{"measurement": "ability of recombinant RTK ligand to confer resistance", "setting": "[1]; A2058, PD184352 - 1 uM, ligand 0.4 ng/ml", "value": 1.07}, {"measurement": "ability of recombinant RTK ligand to confer resistance", "setting": "[1]; A2058, PD184352 - 1 uM, ligand 1.6 ng/ml", "value": 0.98}, {"measurement": "ability of recombinant RTK ligand to confer resistance", "setting": "[1]; A2058, PD184352 - 1 uM, ligand 6.25 ng/ml", "value": 1.10}, {"measurement": "ability of recombinant RTK ligand to confer resistance", "setting": "[1]; A2058, PD184352 - 1 uM, ligand 25 ng/ml", "value": 1.09}, {"measurement": "ability of recombinant RTK ligand to confer resistance", "setting": "[1]; A2058, PD184352 - 1 uM, ligand 100 ng/ml", "value": 1.02}, {"measurement": "ability of recombinant RTK ligand to confer resistance", "setting": "[1]; A2058, PLX4720 - 2 uM, ligand 0.4 ng/ml", "value": 1.07}, {"measurement": "ability of recombinant RTK ligand to confer resistance", "setting": "[1]; A2058, PLX4720 - 2 uM, ligand 1.6 ng/ml", "value": 0.98}, {"measurement": "ability of recombinant RTK ligand to confer resistance", "setting": "[1]; A2058, PLX4720 - 2 uM, ligand 6.25 ng/ml", "value": 1.07}, {"measurement": "ability of recombinant RTK ligand to confer resistance", "setting": "[1]; A2058, PLX4720 - 2 uM, ligand 25 ng/ml", "value": 1.12}, {"measurement": "ability of recombinant RTK ligand to confer resistance", "setting": "[1]; A2058, PLX4720 - 2 uM, ligand 100 ng/ml", "value": 1.07}, {"measurement": "ability of recombinant RTK ligand to confer resistance", "setting": "[1]; C32, PD184352 - 1 uM, ligand 0.4 ng/ml", "value": 1.06}, {"measurement": "ability of recombinant RTK ligand to confer resistance", "setting": "[1]; C32, PD184352 - 1 uM, ligand 1.6 ng/ml", "value": 0.97}, {"measurement": "ability of recombinant RTK ligand to confer resistance", "setting": "[1]; C32, PD184352 - 1 uM, ligand 6.25 ng/ml", "value": 1.08}, {"measurement": "ability of recombinant RTK ligand to confer resistance", "setting": "[1]; C32, PD184352 - 1 uM, ligand 25 ng/ml", "value": 1.10}, {"measurement": "ability of recombinant RTK ligand to confer resistance", "setting": "[1]; C32, PD184352 - 1 uM, ligand 100 ng/ml", "value": 0.96}, {"measurement": "ability of recombinant RTK ligand to confer resistance", "setting": "[1]; C32, PLX4720 - 2 uM, ligand 0.4 ng/ml", "value": 0.96}, {"measurement": "ability of recombinant RTK ligand to confer resistance", "setting": "[1]; C32, PLX4720 - 2 uM, ligand 1.6 ng/ml", "value": 0.97}, {"measurement": "ability of recombinant RTK ligand to confer resistance", "setting": "[1]; C32, PLX4720 - 2 uM, ligand 6.25 ng/ml", "value": 1.04}, {"measurement": "ability of recombinant RTK ligand to confer resistance", "setting": "[1]; C32, PLX4720 - 2 uM, ligand 25 ng/ml", "value": 0.97}, {"measurement": "ability of recombinant RTK ligand to confer resistance", "setting": "[1]; C32, PLX4720 - 2 uM, ligand 100 ng/ml", "value": 0.89}, {"measurement": "ability of recombinant RTK ligand to confer resistance", "setting": "[1]; Colo 829, PD184352 - 1 uM, ligand 0.4 ng/ml", "value": 1.04}, {"measurement": "ability of recombinant RTK ligand to confer resistance", "setting": "[1]; Colo 829, PD184352 - 1 uM, ligand 1.6 ng/ml", "value": 1.06}, {"measurement": "ability of recombinant RTK ligand to confer resistance", "setting": "[1]; Colo 829, PD184352 - 1 uM, ligand 6.25 ng/ml", "value": 1.10}, {"measurement": "ability of recombinant RTK ligand to confer resistance", "setting": "[1]; Colo 829, PD184352 - 1 uM, ligand 25 ng/ml", "value": 1.09}, {"measurement": "ability of recombinant RTK ligand to confer resistance", "setting": "[1]; Colo 829, PD184352 - 1 uM, ligand 100 ng/ml", "value": 0.98}, {"measurement": "ability of recombinant RTK ligand to confer resistance", "setting": "[1]; Colo 829, PLX4720 - 2 uM, ligand 0.4 ng/ml", "value": 1.01}, {"measurement": "ability of recombinant RTK ligand to confer resistance", "setting": "[1]; Colo 829, PLX4720 - 2 uM, ligand 1.6 ng/ml", "value": 1.03}, {"measurement": "ability of recombinant RTK ligand to confer resistance", "setting": "[1]; Colo 829, PLX4720 - 2 uM, ligand 6.25 ng/ml", "value": 1.06}, {"measurement": "ability of recombinant RTK ligand to confer resistance", "setting": "[1]; Colo 829, PLX4720 - 2 uM, ligand 25 ng/ml", "value": 1.06}, {"measurement": "ability of recombinant RTK ligand to confer resistance", "setting": "[1]; Colo 829, PLX4720 - 2 uM, ligand 100 ng/ml", "value": 1.01}, {"measurement": "ability of recombinant RTK ligand to confer resistance", "setting": "[1]; G-361, PD184352 - 1 uM, ligand 0.4 ng/ml", "value": 1.00}, {"measurement": "ability of recombinant RTK ligand to confer resistance", "setting": "[1]; G-361, PD184352 - 1 uM, ligand 1.6 ng/ml", "value": 0.89}, {"measurement": "ability of recombinant RTK ligand to confer resistance", "setting": "[1]; G-361, PD184352 - 1 uM, ligand 6.25 ng/ml", "value": 0.99}, {"measurement": "ability of recombinant RTK ligand to confer resistance", "setting": "[1]; G-361, PD184352 - 1 uM, ligand 25 ng/ml", "value": 0.98}, {"measurement": "ability of recombinant RTK ligand to confer resistance", "setting": "[1]; G-361, PD184352 - 1 uM, ligand 100 ng/ml", "value": 0.96}, {"measurement": "ability of recombinant RTK ligand to confer resistance", "setting": "[1]; G-361, PLX4720 - 2 uM, ligand 0.4 ng/ml", "value": 0.93}, {"measurement": "ability of recombinant RTK ligand to confer resistance", "setting": "[1]; G-361, PLX4720 - 2 uM, ligand 1.6 ng/ml", "value": 0.90}, {"measurement": "ability of recombinant RTK ligand to confer resistance", "setting": "[1]; G-361, PLX4720 - 2 uM, ligand 6.25 ng/ml", "value": 0.98}, {"measurement": "ability of recombinant RTK ligand to confer resistance", "setting": "[1]; G-361, PLX4720 - 2 uM, ligand 25 ng/ml", "value": 1.00}, {"measurement": "ability of recombinant RTK ligand to confer resistance", "setting": "[1]; G-361, PLX4720 - 2 uM, ligand 100 ng/ml", "value": 1.00}, {"measurement": "ability of recombinant RTK ligand to confer resistance", "setting": "[1]; SK-MEL-5, PD184352 - 1 uM, ligand 0.4 ng/ml", "value": 1.03}, {"measurement": "ability of recombinant RTK ligand to confer resistance", "setting": "[1]; SK-MEL-5, PD184352 - 1 uM, ligand 1.6 ng/ml", "value": 1.08}, {"measurement": "ability of recombinant RTK ligand to confer resistance", "setting": "[1]; SK-MEL-5, PD184352 - 1 uM, ligand 6.25 ng/ml", "value": 1.04}, {"measurement": "ability of recombinant RTK ligand to confer resistance", "setting": "[1]; SK-MEL-5, PD184352 - 1 uM, ligand 25 ng/ml", "value": 1.15}, {"measurement": "ability of recombinant RTK ligand to confer resistance", "setting": "[1]; SK-MEL-5, PD184352 - 1 uM, ligand 100 ng/ml", "value": 1.16}, {"measurement": "ability of recombinant RTK ligand to confer resistance", "setting": "[1]; SK-MEL-5, PLX4720 - 2 uM, ligand 0.4 ng/ml", "value": 0.87}, {"measurement": "ability of recombinant RTK ligand to confer resistance", "setting": "[1]; SK-MEL-5, PLX4720 - 2 uM, ligand 1.6 ng/ml", "value": 0.98}, {"measurement": "ability of recombinant RTK ligand to confer resistance", "setting": "[1]; SK-MEL-5, PLX4720 - 2 uM, ligand 6.25 ng/ml", "value": 1.02}, {"measurement": "ability of recombinant RTK ligand to confer resistance", "setting": "[1]; SK-MEL-5, PLX4720 - 2 uM, ligand 25 ng/ml", "value": 1.16}, {"measurement": "ability of recombinant RTK ligand to confer resistance", "setting": "[1]; SK-MEL-5, PLX4720 - 2 uM, ligand 100 ng/ml", "value": 1.31}, {"measurement": "ability of recombinant RTK ligand to confer resistance", "setting": "[1]; SK-MEL-28, PD184352 - 1 uM, ligand 0.4 ng/ml", "value": 1.10}, {"measurement": "ability of recombinant RTK ligand to confer resistance", "setting": "[1]; SK-MEL-28, PD184352 - 1 uM, ligand 1.6 ng/ml", "value": 1.02}, {"measurement": "ability of recombinant RTK ligand to confer resistance", "setting": "[1]; SK-MEL-28, PD184352 - 1 uM, ligand 6.25 ng/ml", "value": 1.05}, {"measurement": "ability of recombinant RTK ligand to confer resistance", "setting": "[1]; SK-MEL-28, PD184352 - 1 uM, ligand 25 ng/ml", "value": 0.99}, {"measurement": "ability of recombinant RTK ligand to confer resistance", "setting": "[1]; SK-MEL-28, PD184352 - 1 uM, ligand 100 ng/ml", "value": 1.03}, {"measurement": "ability of recombinant RTK ligand to confer resistance", "setting": "[1]; SK-MEL-28, PLX4720 - 2 uM, ligand 0.4 ng/ml", "value": 1.03}, {"measurement": "ability of recombinant RTK ligand to confer resistance", "setting": "[1]; SK-MEL-28, PLX4720 - 2 uM, ligand 1.6 ng/ml", "value": 1.10}, {"measurement": "ability of recombinant RTK ligand to confer resistance", "setting": "[1]; SK-MEL-28, PLX4720 - 2 uM, ligand 6.25 ng/ml", "value": 1.16}, {"measurement": "ability of recombinant RTK ligand to confer resistance", "setting": "[1]; SK-MEL-28, PLX4720 - 2 uM, ligand 25 ng/ml", "value": 10.5}, {"measurement": "ability of recombinant RTK ligand to confer resistance", "setting": "[1]; SK-MEL-28, PLX4720 - 2 uM, ligand 100 ng/ml", "value": 1.13}, {"measurement": "ability of RTK ligand to confer primary resistance", "setting": "[1]; six V600E BRAF melanoma cell lines, BRAFi (PLX4720) or MEKi (PD184352)", "value": "not shown to induce primary resistance"}, {"measurement": "re-activation of pERK/pAKT", "setting": "pERK/pAKT", "value": "reactivate only ERK"}]}]}
